Results from patent US20210068659A1, “Use of Octafluorocyclobutane for Lung Imaging” (Lakehead University, priority 2019, published 2021).

Legend:
[1] = Specific Absorption Rate (SAR) / scan safety inferred from the longer spin-lattice relaxation time; conditions: summary statement
Source text: While the spin-lattice relaxation time is 60% longer for OFCB compared to PFP, which limits the potential number of signal averages, the longer spin-lattice relaxation means that there are a smaller number of radio pulses with OFCB. This means that the Specific Absorption Rate (SAR) is lower for OFCB-O2 scans. […] The lower SAR value of OFCB scans means that ^19F OFCB lung MRI is safer for patients than MRI scans acquired using other inert fluorinated gases.

[2] = Measured relaxation parameters (19F MRI relaxation times) of pure gases and gas-O2 mixtures in vitro; format: physicochemical; conditions: for T2′ / T1: in vitro, pure gas or gas-O2 breathing mixture; for T1: spin-lattice relaxation time
Source text: The relaxation times for OFCB-O2 mixture In Vivo should be measured experimentally. We measured the relaxation times for pure OFCB and OFCB-O2 mixture in vitro.
While we were not first who measured the relaxation times for pure OFCB, to our knowledge, we are the first who characterized the OFCB-O2 breathing mixture.

SMILES	safer compared to PFP [1]	spin-lattice relaxation time longer compared to PFP ([2]; OFCB compared to PFP)	T2′ [2]	T1 [2]
FC1(F)C(F)(F)C(F)(F)C1(F)F [OFCB, octafluorocyclobutane]	60%	60%	10.5 ± 1.8 ms	27.9 ± 0.8 ms
FC(F)(F)C(F)(F)C(F)(F)F [PFP, perfluoropropane, reference compound]			6.26 ± 0.27 ms	18.6 ± 0.4 ms
